Data as given in patent US20260250301A1, “KRAS G12D INHIBITORS AND USES THEREOF” (SUZHOU ZANRONG PHARMA LIMITED, priority 2023, published 2026).

Tests used:
[1] = In vivo oral bioavailability assay (mouse PK); settings: Balb/c mice female, IV bolus 1 mg/kg
Method: In Vivo Oral Bioavailability Assay (Mouse PK):
Single dose following IV bolus (1 mg/kg, 0.2 mg/mL in 1% DMSO, 99% SBE-β-CD (10% w/v) in water) and oral gavage (10 mg/kg~60 mg/kg) administration of test compound in Balb/c Mice female. The blood samples were collected at 2 min, 5 min, 10 min, 30 min, 1 hr, 2 hr, 4 hr, 8 hr and 24 hr (additional 32 hr and 48 hr for MRTX1133) after IV bolus, at 15 min, 30 min, 1 hr, 1.5 hr, 2 hr, 3 hr, 4 hr, 8 hr and 24 hr (additional 32 hr and 48 hr for MRTX1133) after PO administration. The plasma concentrations of compounds were determined with UPLC-MS/MS.

[2] = tested on: PANC-1 pERK; experiment: Phospho-ERK 1/2 assay; format: cell-based; settings: PANC-1 cells, compound incubation 3 hours, pERK normalised with GAPDH antibody staining
Method: Allow PNAC-1 cell growth in a T75 flask in DMEM and 10% 1 fetal calf serum (FCS; Gibco®), using standard tissue culture procedures until ~80% confluency is achieved. Day 1, seed 6000 cells/well in 384 well plate and incubate at 37° C., 5% CO2. Add diluted compound by Echo 550, final DMSO is 0.5%, incubate cells at 37° C., 5% CO2 for 3 hours. Then, remove medium and fix cells with 3.7% formaldehyde in PBS (PFA) by Apricot. Wash with PBS once. Permeabilize cells with cold 100% methanol and repeat wash once with PBS once. Add Li-Cor blocking buffer to each well and incubate 1.5 hours at RT. Remove blocking buffer and add primary antibody mixture (rabbit anti pERK, mouse anti GAPDH). Incubate at 4° C. overnight. Day 2, wash with PBST (Tween-20 in PBS) with total 3 times and then add secondary antibody mixture (goat anti rabbit 800CW (1:800 dilution in the combined solution) and goat anti mouse 680RD (1:800 dilution in the combined solution)), incubate for 60 minutes at RT away from light. Repeat washing with PBST 3 times. After final wash, centrifuge plate up-side-down at 1000 rpm to remove wash solution completely from wells. Before plate scanning, clean the bottom plate surface and the Odyssey© Imager scanning bed (if applicable) with moist, lint-free tissue to avoid any obstructions during scanning. Scan plate with detection in both 700 and 800 nm channels.

[3] = target: T1, P-glycoprotein (Pgp, MDR1) (Homo sapiens, UniProt P08183); experiment: MDCK-MDR1 Pgp assessment; format: in vitro ADME; settings: dog, MDCK-MDR1 cells, read-out: Pgp Efflux Ratio (Pexact)
T1 construct: expressed in transfected cells; host or cells: MDCK-MDR1 cells
T1 sequence (P08183 whole entry): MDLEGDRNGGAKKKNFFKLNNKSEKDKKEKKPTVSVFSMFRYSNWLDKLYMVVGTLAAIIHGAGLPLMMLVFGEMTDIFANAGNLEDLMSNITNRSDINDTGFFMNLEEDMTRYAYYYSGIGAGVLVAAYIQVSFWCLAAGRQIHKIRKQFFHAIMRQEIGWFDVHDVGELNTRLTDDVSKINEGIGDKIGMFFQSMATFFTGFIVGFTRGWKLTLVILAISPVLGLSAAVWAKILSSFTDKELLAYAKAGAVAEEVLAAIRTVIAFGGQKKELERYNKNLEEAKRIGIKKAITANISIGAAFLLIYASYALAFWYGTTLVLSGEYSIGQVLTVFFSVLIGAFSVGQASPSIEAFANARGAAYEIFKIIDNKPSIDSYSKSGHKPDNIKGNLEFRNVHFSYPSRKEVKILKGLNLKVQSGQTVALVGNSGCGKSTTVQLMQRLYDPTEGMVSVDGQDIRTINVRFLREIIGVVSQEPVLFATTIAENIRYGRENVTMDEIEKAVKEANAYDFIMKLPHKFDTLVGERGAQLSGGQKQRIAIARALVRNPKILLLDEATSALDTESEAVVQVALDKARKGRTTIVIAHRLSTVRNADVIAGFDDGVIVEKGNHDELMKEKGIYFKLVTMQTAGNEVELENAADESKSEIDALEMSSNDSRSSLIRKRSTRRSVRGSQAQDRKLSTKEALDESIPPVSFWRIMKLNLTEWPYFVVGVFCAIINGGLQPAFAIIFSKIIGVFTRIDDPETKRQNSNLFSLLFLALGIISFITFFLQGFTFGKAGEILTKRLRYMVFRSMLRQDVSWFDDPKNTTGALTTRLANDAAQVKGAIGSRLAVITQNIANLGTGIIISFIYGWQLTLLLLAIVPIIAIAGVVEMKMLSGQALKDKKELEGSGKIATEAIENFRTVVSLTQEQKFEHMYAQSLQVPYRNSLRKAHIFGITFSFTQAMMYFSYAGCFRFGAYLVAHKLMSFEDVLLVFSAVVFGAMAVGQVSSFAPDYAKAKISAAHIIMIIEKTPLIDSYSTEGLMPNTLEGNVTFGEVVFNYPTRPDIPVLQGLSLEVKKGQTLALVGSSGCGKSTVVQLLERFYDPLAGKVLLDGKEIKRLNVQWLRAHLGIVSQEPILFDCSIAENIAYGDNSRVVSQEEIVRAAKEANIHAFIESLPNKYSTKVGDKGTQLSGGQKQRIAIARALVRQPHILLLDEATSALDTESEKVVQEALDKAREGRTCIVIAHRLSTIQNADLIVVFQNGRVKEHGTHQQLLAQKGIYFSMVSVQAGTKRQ
Method: Efflux transport mediated by P-glycoprotein (Pgp) was assessed by MDCK-MDR1 cells. The final concentrations of test compounds and control compound were at 1 μM. The multi-well insert plate was incubated at 37 ^9C for 2 hours. In order to reliably measure passive permeability coefficients, Pexact was reported, which automatically corrects for loss of compound.

Compound	IC50 ([2]; Homo sapiens, PANC-1, 3 h) [nM]	further results
C#Cc1c(F)ccc2cccc(-c3nc4c5c(nc(=O)n(C[C@@]67CCCN6CC(=C)C7)c5c3F)N3C[C@H]5CC[C@H](N5)[C@H]3[C@H](C)O4)c12 (single isomer, unassigned) [Example 200a]	12	Fa*Fg (%) ([1]; oral dose 10 mpk): 24%; bioavailability ([1]; mouse, plasma, oral dose 10 mpk): 15.8%
C#Cc1c(F)ccc2cccc(-c3nc4c5c(nc(=O)n(CC(C)(CO)N(C)C)c5c3F)N3C[C@H]5CC[C@H](N5)[C@H]3[C@H](C)O4)c12 (single isomer, unassigned) [Example 365a]	–	efflux ratio at 2 h, 1 μM [3]: 8.4; IC50 [2]: 6 nM
CCc1c(F)ccc2cc(O)cc(-c3nc4c5c(nc(=O)n(CC(C)(CO)N(C)C)c5c3F)N3C[C@H]5CC[C@H](N5)[C@H]3[C@H](C)O4)c12 (single isomer, unassigned) [Example 373a]	–	efflux ratio at 2 h, 1 μM [3]: 12.5; IC50 [2]: 6.4 nM
C#Cc1c(F)ccc2cc(O)cc(-c3c(F)c4c5c(cc(=O)n(C[C@@]67CCCN6C[C@H](F)C7)c5c3F)N3C[C@H]5CC[C@H](N5)[C@H]3CO4)c12 [Example 332, (5aS,6S,9R)-2-(8-ethynyl-7-fluoro-3-hydroxynaphthalen-1-yl)-1,3-difluoro-14-(((2R,7aS)-2-fluorotetrahydro-1H-pyrrolizin-7a(5H)-yl)methyl)-5a,6,7,8,9,10-hexahydro-5H-6,9-epiminoazepino[2′,1′:3,4][1,4] oxazepino[5,6,7-de]quinolin-13(14H)-one]	778	–
C#Cc1c(F)ccc2cccc(-c3nc4c5c(nc(=O)n([C@H](C)CN6[C@@H]7CC[C@H]6COC7)c5c3F)N3C[C@H]5CC[C@H](N5)[C@H]3[C@H](C)O4)c12 [Example 341, (5S,5aS,6S,9R)-13-((R)-1-((1R,5S)-3-oxa-8-azabicyclo[3.2.1]octan-8-yl)propan-2-yl)-2-(8-ethynyl-7-fluoronaphthalen-1-yl)-1-fluoro-5-methyl-5a,6,7,8,9,10-hexahydro-5H-4-oxa-3,10a,11,13,14-pentaaza-6,9-methanonaphtho[1,8-ab]heptalen-12(13H)-one]	70	–
C#Cc1c(F)ccc2cccc(-c3nc4c5c(nc(=O)n(C[C@@]6(C)CCN6C)c5c3F)N3C[C@H]5CC[C@H](N5)[C@H]3[C@H](C)O4)c12 [Example 357, (5S,5aS,6S,9R)-13-(((R)-1,2-dimethylazetidin-2-yl)methyl)-2-(8-ethynyl-7-fluoronaphthalen-1-yl)-1-fluoro-5-methyl-5a,6,7,8,9,10-hexahydro-5H-4-oxa-3,10a,11,13,14-pentaaza-6,9-methanonaphtho[1,8-ab]heptalen-12(13H)-one]	123	–
CCc1c(F)ccc2cc(O)cc(-c3nc4c5c(nc(=O)n(C[C@@]67CCCN6C[C@H](F)C7)c5c3F)N3C[C@@]5(C)CC[C@H](N5)[C@H]3[C@H](C)O4)c12 [Example 361, (5S,5aS,6S,9R)-2-(8-ethyl-7-fluoro-3-hydroxynaphthalen-1-yl)-1-fluoro-13-(((2R,7aS)-2-fluorotetrahydro-1H-pyrrolizin-7a(5H)-yl)methyl)-5,9-dimethyl-5a,6,7,8,9,10-hexahydro-5H-4-oxa-3,10a,11,13,14-pentaaza-6,9-methanonaphtho[1,8-ab]heptalen-12(13H)-one]	43	–
C=C1CN2CCC[C@@]2(Cn2c(=O)nc3c4c(nc(-c5cc(O)cc6ccc(F)c(CC)c56)c(F)c42)O[C@@H](C)[C@@H]2[C@@H]4CC[C@](C)(CN32)N4)C1 [Example 362, (5S,5aS,6S,9R)-2-(8-ethyl-7-fluoro-3-hydroxynaphthalen-1-yl)-1-fluoro-5,9-dimethyl-13-(((S)-2-methylenetetrahydro-1H-pyrrolizin-7a(5H)-yl)methyl)-5a,6,7,8,9,10-hexahydro-5H-4-oxa-3,10a,11,13,14-pentaaza-6,9-methanonaphtho[1,8-ab]heptalen-12(13H)-one]	221	–
C=C1CN2CCC[C@@]2(Cn2c(=O)nc3c4c(nc(-c5cc(O)cc6ccc(F)c(Cl)c56)c(F)c42)O[C@@H](C)[C@@H]2[C@@H]4CC[C@H](CN32)N4)C1 [Example 363, (5S,5aS,6S,9R)-2-(8-chloro-7-fluoro-3-hydroxynaphthalen-1-yl)-1-fluoro-5-methyl-13-(((S)-2-methylenetetrahydro-1H-pyrrolizin-7a(5H)-yl)methyl)-5a,6,7,8,9,10-hexahydro-5H-4-oxa-3,10a,11,13,14-pentaaza-6,9-methanonaphtho[1,8-ab]heptalen-12(13H)-one]	88	–
C#Cc1c(F)ccc2cccc(-c3nc4c5c(nc(=O)n(C[C@H]6CCN6C)c5c3F)N3C[C@H]5CC[C@H](N5)[C@H]3[C@H](C)O4)c12 [Example 366, (8S,8aS,9S,12R)-5-(8-ethynyl-7-fluoronaphthalen-1-yl)-4-fluoro-8-methyl-3-(((R)-1-methylazetidin-2-yl)methyl)-8a,9,10,11,12,13-hexahydro-8H-7-oxa-1,3,6,13a,14-pentaaza-9,12-methanonaphtho[1,8-ab]heptalen-2(3H)-one]	272	–
C#Cc1c(F)ccc2cccc(-c3nc4c5c(nc(=O)n(C[C@@]6(C)CCCN6C)c5c3F)N3C[C@H]5CC[C@H](N5)[C@H]3[C@H](C)O4)c12 [Example 367, (8S,8aS,9S,12R)-3-(((R)-1,2-dimethylpyrrolidin-2-yl)methyl)-5-(8-ethynyl-7-fluoronaphthalen-1-yl)-4-fluoro-8-methyl-8a,9,10,11,12,13-hexahydro-8H-7-oxa-1,3,6,13a,14-pentaaza-9,12-methanonaphtho[1,8-ab]heptalen-2(3H)-one]	234	–
CCc1c(F)ccc2cc(O)cc(-c3nc4c5c(nc(=O)n(C[C@H]6CCN6C)c5c3F)N3C[C@H]5CC[C@H](N5)[C@H]3[C@H](C)O4)c12 [Example 369, (8S,8aS,9S,12R)-5-(8-ethyl-7-fluoro-3-hydroxynaphthalen-1-yl)-4-fluoro-8-methyl-3-(((R)-1-methylazetidin-2-yl)methyl)-8a,9,10,11,12,13-hexahydro-8H-7-oxa-1,3,6,13a,14-pentaaza-9,12-methanonaphtho[1,8-ab]heptalen-2(3H)-one]	400	–
C#Cc1c(F)ccc2cccc(-c3nc4c5c(nc(=O)n(C(C)[C@H]6CCCN6C)c5c3F)N3C[C@H]5CC[C@H](N5)[C@H]3[C@H](C)O4)c12 (stereo partly drawn) [Example 370, (8S,8aS,9S,12R)-5-(8-ethynyl-7-fluoronaphthalen-1-yl)-4-fluoro-8-methyl-3-(1-((R)-1-methylpyrrolidin-2-yl)ethyl)-8a,9,10,11,12,13-hexahydro-8H-7-oxa-1,3,6,13a,14-pentaaza-9,12-methanonaphtho[1,8-ab]heptalen-2(3H)-one]	271	–
C#Cc1c(F)ccc2cc(O)cc(-c3ncc4c(N5CC6CCC(C5)N6)nc(OC[C@@]56CCCN5C[C@H](F)C6)nc4c3F)c12 [MRTX1133, reference compound]	–	Fa*Fg (%) ([1]; oral dose 30 mpk): 0.95%
